From US8987195B2 (priority 2012, dated 2015)

Each compound was assayed against HCV NS3/4A protease genotype 1b (Hepatitis C virus genotype 1b, UniProt P26663) (assay: HCV NS3/4A protease time-resolved fluorescence (TRF) assay, Ki against genotype 1b). Settings: IC50 [gt-1b], NS3/4A protease TRF assay, genotype 1b enzyme 0.2 nM.
Assay type: biochemical
Method: Measuring NS3/4A Inhibitory Activity (Ki) Against Genotype 1b, Against A156T Mutants and Against Genotype 3a
One assay for measuring inhibitory activity is HCV NS3 protease time-resolved fluorescence (TRF) assay as described below and in Mao et al., Anal. Biochem. 373:1-8, 2008 and International Patent Application Publication WO 2006/102087. A NS3 protease assay can be performed, for example, in a final volume of 20 μl assay buffer containing 50 mM HEPES, pH 7.5, 150 mM NaCl, 15% glycerol, 0.15% TRITON X-100, 10 mM DTT, and 0.1% PEG 8000. NS3 and NS4A protease is pre-incubated with various concentrations of inhibitors in DMSO for 30 min. The reaction is initiated by adding the TRF peptide substrate (final concentration 25 nM). NS3 mediated hydrolysis of the substrate was run for 2.5 hours at room temperature. Product fluorescence is detected using A Pherastar Plus plate reader (BMG) or Envision (Perkin Elmer Life and Analytical Sciences with excitation at 340 nm and emission at 615 nm using the appropriate delay time optimized for the europium fluorescence probe. Testing concentrations of different enzyme forms are selected to result in a signal to background ratio (S/B) of 10-30. IC50 values are derived using a standard four-parameter fit to the data. Ki values are derived from IC50 values using the following formula, IC50=Ki(1+[S]/KM), Eqn (1), where [S] is the concentration of substrate peptide in the reaction and KM is the Michaelis constant. See P. Gallinari et al., 38 BIOCHEM. 5620-32 (1999); P. Gallinari et al., 72 J. VIROL. 6758-69 (1998); M. Taliani et al., 240 ANAL. BIOCHEM. 60-67 (1996); Mao et al., Analytical Biochemistry 373: 1-8, 2008.
The assay described above was run against genotype 1b at a concentration of 0.2 nM, against A156T mutant strains at a concentration of 0.4 nM, and against genotype 3a at a concentration of 0.025 nM.

Row | SMILES | IC50 [pM]
1 | COc1cc(Cl)c2nc(C(F)(F)F)c3c(c2c1)CC[C@]1(C[C@H]2C(=O)N[C@]4(C(=O)NS(=O)(=O)C5(C)CC5)C[C@H]4/C=C\CCCCC[C@H](NC(=O)OC(C)(C)C(F)(F)F)C(=O)N2C1)O3 [Example 400, 1,1,1-trifluoro-2-methylpropan-2-yl [(2R,6S,12Z,13aS,14aR,16aS)-7′-chloro-9′-methoxy-14a-{[(1-methylcyclopropyl)sulfonyl]carbamoyl}-5,16-dioxo-5′-(trifluoromethyl)-1,1′,2′,5,6,7,8,9,10,11,13a,14,14a,15,16,16a-hexadecahydrospiro[cyclopropa[e]pyrrolo[1,2-a][1,4]diazacyclopentadecine-2,3′-pyrano[2,3-c]quinolin]-6-yl]carbamate] | 52
2 | COc1cc(Cl)c2nc(C(F)(F)F)c3c(c2c1)CC[C@]1(C[C@H]2C(=O)N[C@]4(C(=O)NS(=O)(=O)C5(C)CC5)C[C@H]4/C=C\CCCCC[C@H](NC(=O)OCC(C)(C)C)C(=O)N2C1)O3 [Example 401, 2,2-dimethylpropyl [(2R,6S,12Z,13aS,14aR,16aS)-7′-chloro-9′-methoxy-14a-{[(1-methylcyclopropyl)sulfonyl]carbamoyl}-5,16-dioxo-5′-(trifluoromethyl)-1,1′,2′,5,6,7,8,9,10,11,13a,14,14a,15,16,16a-hexadecahydrospiro[cyclopropa[e]pyrrolo[1,2-a][1,4]diazacyclopentadecine-2,3′-pyrano[2,3-c]quinolin]-6-yl]carbamate] | 57
3 | COc1ccc2nc(C(F)(F)F)c3c(c2c1)[C@](C)(O)C[C@]1(C[C@H]2C(=O)N[C@]4(C(=O)NS(=O)(=O)C5(C)CC5)C[C@H]4/C=C\CCCCC[C@H](NC(=O)OCC(C)C)C(=O)N2C1)O3 [Example 505, 2-methylpropyl [(1′R,2S,6S,12Z,13aS,14aR,16aS)-1′-hydroxy-9′-methoxy-1′-methyl-14a-{[(1-methylcyclopropyl)sulfonyl]carbamoyl}-5,16-dioxo-5′-(trifluoromethyl)-1,1′,2′,5,6,7,8,9,10,11,13a,14,14a,15,16,16a-hexadecahydrospiro[cyclopropa[e]pyrrolo[1,2-a][1,4]diazacyclopentadecine-2,3′-pyrano[2,3-c]quinolin]-6-yl]carbamate] | 16
4 | COc1ccc2nc(C(F)(F)F)c3c(c2c1)[C@](C)(O)C[C@]1(C[C@H]2C(=O)N[C@]4(C(=O)NS(=O)(=O)C5(C)CC5)C[C@H]4/C=C\CCCCC[C@H](NC(=O)OCC(C)(C)C)C(=O)N2C1)O3 [Example 506, 2,2-dimethylpropyl [(1′R,2S,6S,12Z,13aS,14aR,16aS)-1′-hydroxy-9′-methoxy-1′-methyl-14a-{[(1-methylcyclopropyl)sulfonyl]carbamoyl}-5,16-dioxo-5′-(trifluoromethyl)-1,1′,2′,5,6,7,8,9,10,11,13a,14,14a,15,16,16a-hexadecahydrospiro[cyclopropa[e]pyrrolo[1,2-a][1,4]diazacyclopentadecine-2,3′-pyrano[2,3-c]quinolin]-6-yl]carbamate] | 15

Same assay, conditions: IC50 [gt-1b], NS3/4A protease TRF assay, genotype 1b enzyme 0.2 nM; HCl salt

Row | SMILES | IC50 [pM]
5 | CCc1nc2ccc(OCCCN3CCOCC3)cc2c2c1O[C@]1(CC2)C[C@H]2C(=O)N[C@]3(C(=O)NS(=O)(=O)C4(C)CC4)C[C@H]3/C=C\CCCCC[C@H](NC(=O)OCC(C)(C)C)C(=O)N2C1 [Example 521, 2,2-dimethylpropyl {(2R,6S,12Z,13aS,14aR,16aS)-5′-ethyl-14a-{[(1-methylcyclopropyl)sulfonyl]carbamoyl}-9′-[3-(morpholin-4-yl)propoxy]-5,16-dioxo-1,1′,2′,5,6,7,8,9,10,11,13a,14,14a,15,16,16a-hexadecahydrospiro[cyclopropa[e]pyrrolo[1,2-a][1,4]diazacyclopentadecine-2,3′-pyrano[2,3-c]quinolin]-6-yl}carbamate] | 4

Same assay, conditions: IC50 [gt-1b], NS3/4A protease TRF assay, genotype 1b enzyme 0.2 nM; K+ salt

Row | SMILES | IC50 [pM]
6 | COc1ccc2nc(C(F)F)c3c(c2c1)CC[C@]1(C[C@H]2C(=O)NC4(C(=O)NS(=O)(=O)C5(C)CC5)C[C@H]4/C=C\CCCCC[C@H](NC(=O)O[C@@H]4C[C@@H]5C[C@@H]5C4)C(=O)N2C1)O3 (stereo partly drawn) [Example 503, (1R,3r,5S)-bicyclo[3.1.0]hex-3-yl [(2R,6S,12Z,13aS,14aR,16aS)-5′-(difluoromethyl)-9′-methoxy-14a-{[(1-methylcyclopropyl)sulfonyl]carbamoyl}-5,16-dioxo-1,1′,2′,5,6,7,8,9,10,11,13a,14,14a,15,16,16a-hexadecahydrospiro[cyclopropa[e]pyrrolo[1,2-a][1,4]diazacyclopentadecine-2,3′-pyrano[2,3-c]quinolin]-6-yl]carbamate] | 7
7 | COc1ccc2nc(C(F)F)c3c(c2c1)CC[C@]1(C[C@H]2C(=O)N[C@]4(C(=O)NS(=O)(=O)C5(C)CC5)C[C@H]4/C=C\CCCCC[C@H](NC(=O)OCC4CCC4)C(=O)N2C1)O3 [Example 504, cyclobutylmethyl [(2R,6S,12Z,13aS,14aR,16aS)-5′-(difluoromethyl)-9′-methoxy-14a-{[(1-methylcyclopropyl)sulfonyl]carbamoyl}-5,16-dioxo-1,1′,2′,5,6,7,8,9,10,11,13a,14,14a,15,16,16a-hexadecahydrospiro[cyclopropa[e]pyrrolo[1,2-a][1,4]diazacyclopentadecine-2,3′-pyrano[2,3-c]quinolin]-6-yl]carbamate] | 10
8 | COc1ccc2nc(C(F)F)c3c(c2c1)CC[C@]1(C[C@H]2C(=O)N[C@]4(C(=O)NS(=O)(=O)C5(C)CC5)C[C@H]4/C=C\CCCCC[C@H](NC(=O)OC4CCC4)C(=O)N2C1)O3 [Example 508, cyclobutyl [(2R,6S,12Z,13aS,14aR,16aS)-5′-(difluoromethyl)-9′-methoxy-14a-{[(1-methylcyclopropyl)sulfonyl]carbamoyl}-5,16-dioxo-1,1′,2′,5,6,7,8,9,10,11,13a,14,14a,15,16,16a-hexadecahydrospiro[cyclopropa[e]pyrrolo[1,2-a][1,4]diazacyclopentadecine-2,3′-pyrano[2,3-c]quinolin]-6-yl]carbamate] | 4
9 | CCc1nc2ccc(OCCN3CCOCC3)cc2c2c1O[C@]1(CC2)C[C@H]2C(=O)N[C@]3(C(=O)NS(=O)(=O)C4(C)CC4)C[C@H]3/C=C\CCCCC[C@H](NC(=O)OC3(C)CCC3)C(=O)N2C1 [Example 509, 1-methylcyclobutyl {(2R,6S,12Z,13aS,14aR,16aS)-5′-ethyl-14a-{[(1-methylcyclopropyl)sulfonyl]carbamoyl}-9′-[2-(morpholin-4-yl)ethoxy]-5,16-dioxo-1,1′,2′,5,6,7,8,9,10,11,13a,14,14a,15,16,16a-hexadecahydrospiro[cyclopropa[e]pyrrolo[1,2-a][1,4]diazacyclopentadecine-2,3′-pyrano[2,3-c]quinolin]-6-yl}carbamate] | 6
10 | CCc1nc2ccc(OCCN3CCOCC3)cc2c2c1O[C@]1(CC2)C[C@H]2C(=O)N[C@]3(C(=O)NS(=O)(=O)C4(C)CC4)C[C@H]3/C=C\CCCCC[C@H](NC(=O)OCC(C)(C)C)C(=O)N2C1 [Example 510, 2,2-dimethylpropyl {(2R,6S,12Z,13aS,14aR,16aS)-5′-ethyl-14a-{[(1-methylcyclopropyl)sulfonyl]carbamoyl}-9′-[2-(morpholin-4-yl)ethoxy]-5,16-dioxo-1,1′,2′,5,6,7,8,9,10,11,13a,14,14a,15,16,16a-hexadecahydrospiro[cyclopropa[e]pyrrolo[1,2-a][1,4]diazacyclopentadecine-2,3′-pyrano[2,3-c]quinolin]-6-yl}carbamate] | 4
11 | COCCCOc1ccc2nc(C(F)(F)F)c3c(c2c1)CC[C@]1(C[C@H]2C(=O)N[C@]4(C(=O)NS(=O)(=O)C5(C)CC5)C[C@H]4/C=C\CCCCC[C@H](NC(=O)OC4(C)CCC4)C(=O)N2C1)O3 [Example 523, 1-methylcyclobutyl [(2R,6S,12Z,13aS,14aR,16aS)-9′-(3-methoxypropoxy)-14a-{[(1-methylcyclopropyl)sulfonyl]carbamoyl}-5,16-dioxo-5′-(trifluoromethyl)-1,1′,2′,5,6,7,8,9,10,11,13a,14,14a,15,16,16a-hexadecahydrospiro[cyclopropa[e]pyrrolo[1,2-a][1,4]diazacyclopentadecine-2,3′-pyrano[2,3-c]quinolin]-6-yl]carbamate] | 9
